Remaining target (mRNA or protein) (fraction of control) data for 59 sequences are collected here from the OligoGym collection.

These antisense oligonucleotides have a phosphorothioate backbone; sugars and methylation of C are not fully specified. Bounds are passed on as bounds.

Common to all, as to conditions: ASO
Data set [1] deals with MAP2K7.
The target in data set [2] is GNAI3.
In data set [3] the target is ETS2.
Also: test concentration or dose not given here.

For GACGCCGCCATCTTCCCCGC, in data set [1], the remaining target (mRNA or protein) (fraction of control) stood at 0.7.
In data set [2], GACTCCTTCTTCAGCACT returned a remaining target (mRNA or protein) (fraction of control) of 0.48.
GAGGCAGCCTGGTCAAGA yielded a remaining target (mRNA or protein) (fraction of control) in data set [3] of 0.61.
GAGTCCACCAGGCGGCCGCT: the remaining target (mRNA or protein) (fraction of control) in data set [1] came to 0.66.
GAGTTGGAATGTAGTTAG returned a remaining target (mRNA or protein) (fraction of control) in data set [2] of 0.56.
In data set [1], GCACCACATCCAGGTCCATG returned a remaining target (mRNA or protein) (fraction of control) of 0.58.
In the case of GCAGGTATAACTGGTTTG, the remaining target (mRNA or protein) (fraction of control) in data set [3] is at least 1.
As to GCCATCTTCCCCGCCGCCAC, the remaining target (mRNA or protein) (fraction of control) in data set [1] was determined as 0.75.
Same read-out and setting: as for GCCGTTAGTCCGCGGTGACT, the figure is 0.72; as for GCGGGACAGCTTCTGTTCCA, at least 1.
On to GCGTGCAGTTCCTCGGGC, for which the remaining target (mRNA or protein) (fraction of control) in data set [3] is 0.81.
The sequence GGAACGGAGGTGAGGTGT yielded a remaining target (mRNA or protein) (fraction of control) in data set [3] of 0.61.
With GGACGGCCGAGTGGAGGG, in data set [3], the remaining target (mRNA or protein) (fraction of control) was 0.81.
For GGAGCGCCGCATTTGCTTAA, in data set [1], the remaining target (mRNA or protein) (fraction of control) is 0.75.
In data set [3], GGAGCTGAGCCGAGACTT displayed a remaining target (mRNA or protein) (fraction of control) of 0.51.
Turning to GGAGGGCTTGACGTCGCGGT, the remaining target (mRNA or protein) (fraction of control) in data set [1] is 0.96.
GGCCACTTTCCTGGACAT gave a remaining target (mRNA or protein) (fraction of control) in data set [3] of at least 1.
The sequence GGCCGGCTCAGGGTGGTC displayed a remaining target (mRNA or protein) (fraction of control) in data set [3] of 0.51.
GGCTGGCGCTTGAGTGTC returned a remaining target (mRNA or protein) (fraction of control) in data set [3] of 0.7.
For GGGACCCATCAAAGGTGT, in data set [3], the remaining target (mRNA or protein) (fraction of control) came out at 0.66.
Take GGGAGGACGCCGCCATCTTC: in data set [1], the remaining target (mRNA or protein) (fraction of control) was determined as 0.34.
GGGTAATTCTGTGTCTGC came in with a remaining target (mRNA or protein) (fraction of control) in data set [3] of 0.96.
In data set [3], GGGTCACTCCTCTCTTGG returned a remaining target (mRNA or protein) (fraction of control) of 0.75.
Take GGTAGTACAGCGCCTTCACA: in data set [1], the remaining target (mRNA or protein) (fraction of control) was found to be 0.82.
The sequence GGTATCTTTTCTTCTGTT showed a remaining target (mRNA or protein) (fraction of control) in data set [2] of 0.48.
In data set [1], GGTTGGCCGCCGGCCAAAGC had a remaining target (mRNA or protein) (fraction of control) of at least 1.
In data set [3], GTCCATATTCTTGATTCC gave a remaining target (mRNA or protein) (fraction of control) of at least 1.
As for GTCTGACTTTAGCATCTC, the remaining target (mRNA or protein) (fraction of control) in data set [2] turned out to be 0.56.
Consider GTGCCAAAACCTAATGTA, for which, in data set [3], the remaining target (mRNA or protein) (fraction of control) stood at 0.66.
With GTGTTTCTACAATGCCTG, in data set [2], the remaining target (mRNA or protein) (fraction of control) was found to be 0.37.
Consider TAAAGAGTGCTAAGATTC, for which, in data set [2], the remaining target (mRNA or protein) (fraction of control) was determined as 0.72.
Regarding TAAAGTTATTCTTCTCTT, the remaining target (mRNA or protein) (fraction of control) in data set [2] was determined as 0.88.
Regarding TAACGGACTCCTCTTTAT, the remaining target (mRNA or protein) (fraction of control) in data set [2] was found to be 0.25.
In data set [3], TAAGGCTTGACTCATCAC returned a remaining target (mRNA or protein) (fraction of control) of at least 1.
As to TAATTGCTGTCACTCCCT, in data set [2], the remaining target (mRNA or protein) (fraction of control) is 0.65.
TAGCCCGTCTGCTTCATGAT had a remaining target (mRNA or protein) (fraction of control) in data set [1] of 0.76.
TATTGGAACCTGTGTATT came in with a remaining target (mRNA or protein) (fraction of control) in data set [2] of 0.54.
Turning to TCAACTTCACATCTTCCA, the remaining target (mRNA or protein) (fraction of control) in data set [2] amounted to 0.62.
TCACTCTCGTCCGAAGAA returned a remaining target (mRNA or protein) (fraction of control) in data set [2] of 0.41.
Consider TCATAGTCCGGCTTGGTGGG, for which, in data set [1], the remaining target (mRNA or protein) (fraction of control) is at least 1.
On to TCCAGGGAGGACGCCGCCAT, for which the remaining target (mRNA or protein) (fraction of control) in data set [1] came to 0.64.
Still for that read-out and setting: as for TCCAGGTTGAGGTCGATCCT, the figure is 0.68.
For TCGTAATAGTAGCGTAAG, in data set [3], the remaining target (mRNA or protein) (fraction of control) was 0.85.
For TCTTCCCCGCCGCCACCGCC, in data set [1], the remaining target (mRNA or protein) (fraction of control) is 0.77.
In data set [1], TGAACGTCCCAAAGCACTGC returned a remaining target (mRNA or protein) (fraction of control) of 0.86.
TGCCAGCTCCAGAAAGCG returned a remaining target (mRNA or protein) (fraction of control) in data set [3] of 0.84.
TGGCACAGGTGAAGTGAG came in with a remaining target (mRNA or protein) (fraction of control) in data set [2] of 0.29.
On to TGGCTTATTGAGGCAGAG, for which the remaining target (mRNA or protein) (fraction of control) in data set [3] was 0.94.
In the case of TGGTCTTCACTCTCGTCC, in data set [2], the remaining target (mRNA or protein) (fraction of control) amounted to 0.21.
Sequence TGTCATCTTGCCCAGAATGC had a remaining target (mRNA or protein) (fraction of control) in data set [1] of 0.68.
Consider TGTTCCCAGAGAATGTCA, for which the remaining target (mRNA or protein) (fraction of control) in data set [3] is 0.63.
In data set [2], TTAAGAAATCCAAGTGAT showed a remaining target (mRNA or protein) (fraction of control) of at least 1.
In data set [2], TTAAGGAAGAGAATGATT registered a remaining target (mRNA or protein) (fraction of control) of at least 1.
For TTCCGGAAGCGCATCTTCCA, the remaining target (mRNA or protein) (fraction of control) in data set [1] stood at 0.86.
Same read-out and setting: for TTCTCCTGCTTCAGCTTTGC the value was 0.69.
The sequence TTCTTTGGAATGCCCAGG registered a remaining target (mRNA or protein) (fraction of control) in data set [3] of 0.93.
TTGCAGTGTTTGCTCTTC came in with a remaining target (mRNA or protein) (fraction of control) in data set [3] of at least 1.
On the same count and under the same terms, for TTTCCTCTTTCCCCACCG the value was at least 1.
Take TTTCTTGGTTTTCTTTGA: the remaining target (mRNA or protein) (fraction of control) in data set [3] is at least 1.
